Several values for one entry are separate records, joined by “and”; a condition that tells them apart may be missing. Equal entries are not always repeated.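 48-hour exposure; five concentrations; linearly interpolated endpoints. GI50 is the concentration that inhibits growth by half. TGI: total growth inhibition.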 Where a SMILES comes first, the peptide text is derived from it. [ ]: non-standard residue; d: D form. ξ: configuration not given here. Pentanoyl(2-O,4-OH,5-Cl) = O=C(O)C(O)CC(O)CCl; Ile(3ξ) = CCC(C)[C@H](N)C(=O)O; NMeV = CN[C@H](C(=O)O)C(C)C; NMeA = CN[C@@H](C)C(=O)O; βAla = NCCC(=O)O
Tests used:
Test in all cases: NCI-60 cell line screen, 48 h
HCT-15 colon = tested on: HCT-15 colon
K-562 leukemia = tested on: K-562 leukemia
UACC-62 melanoma = tested on: UACC-62 melanoma
OVCAR-4 ovarian = tested on: OVCAR-4 ovarian
PC-3 prostate = tested on: PC-3 prostate
SK-MEL-28 melanoma = tested on: SK-MEL-28 melanoma
MOLT-4 leukemia = tested on: MOLT-4 leukemia
HOP-62 NSCLC = tested on: HOP-62 NSCLC
IGROV1 ovarian = tested on: IGROV1 ovarian
U251 CNS = tested on: U251 CNS

Row | SMILES | GI50 (HCT-15 colon) | TGI (HCT-15 colon) | GI50 (K-562 leukemia) | TGI (K-562 leukemia) | GI50 (UACC-62 melanoma) | TGI (UACC-62 melanoma) | GI50 (OVCAR-4 ovarian) | TGI (OVCAR-4 ovarian) | GI50 (PC-3 prostate) | TGI (PC-3 prostate) | GI50 (SK-MEL-28 melanoma) | TGI (SK-MEL-28 melanoma) | GI50 (MOLT-4 leukemia) | TGI (MOLT-4 leukemia) | GI50 (HOP-62 NSCLC) | TGI (HOP-62 NSCLC) | GI50 (IGROV1 ovarian) | TGI (IGROV1 ovarian) | GI50 (U251 CNS) | TGI (U251 CNS)
1 | C=CC(=O)N1CCN([C@@H](CC2CC2)c2ccc([C@H](C)Nc3ncc4c(n3)N(CC)C(=O)OC4)cc2)CC1 | 10.3 µM | 25.5 µM | 5.34 µM | 69.5 µM | 12.1 µM | 26.1 µM | 12.3 µM | 28.4 µM | 12 µM | 31.4 µM | 16.6 µM | 30.5 µM | 4.51 µM | 26.4 µM | 12.4 µM | 32.9 µM | 4.58 µM | 17.5 µM | 11.8 µM | 26.3 µM
2 | COc1ccc2c(c1[N+](=O)[O-])CC[C@@H]1[C@@H]2CC[C@]2(C)C(=O)CC[C@@H]12 | > 1000 µM | > 1000 µM | > 1000 µM |  | 387 µM |  | 228 µM |  | > 684 µM |  | > 843 µM |  | > 1000 µM | > 1000 µM | 322 µM | > 6.71 µM and 639 µM | 741 µM | > 1000 µM | 476 µM | > 1000 µM
3 | CC(C)OC(=O)Nc1c([N+](=O)[O-])cc(C(F)(F)F)cc1[N+](=O)[O-] |  | > 100 µM |  | > 46.4 µM |  | > 100 µM |  | > 100 µM |  | > 100 µM |  | > 100 µM |  | > 46.4 µM |  | > 100 µM |  | > 100 µM |  | > 100 µM
4 | Cc1cc[c]([Sb]2[O]C(CO)C(C(O)C(O)C(=O)O)[O]2)cc1 (centres undefined) | > 100 µM | > 100 µM | 46.5 µM | > 100 µM | > 100 µM | > 100 µM | > 100 µM | > 100 µM | 57.7 µM | > 100 µM | 39.6 µM | > 100 µM | 78.7 µM | > 100 µM | 45.2 µM | > 100 µM | > 100 µM | > 100 µM | 29.1 µM | > 100 µM
5 | N#Cc1nc2cc(Cl)c(Cl)cc2nc1-c1ccc(Cl)cc1 | > 71.9 µM | > 100 µM | > 56.1 µM | > 100 µM | 33.2 µM | > 70.9 µM | > 100 µM | > 100 µM | 34.8 µM | > 67.7 µM | > 92 µM | > 100 µM | 26.9 µM | > 60.4 µM | 21 µM | 41.6 µM | 73.2 µM | > 100 µM | 19.3 µM | 39.3 µM
6 | CN(C)CCN1C(=O)c2cccc3cc(N)cc(c23)C1=O |  | > 50 µM and 16 µM |  | > 100 µM and 37.4 µM | 2.89 µM | 11.7 µM and 8.02 µM |  | 33.7 µM and 18.3 µM | 4.07 µM | 42.8 µM and 8.73 µM |  | 27.8 µM and 19.6 µM | 1.88 µM | > 100 µM and 13.5 µM | 3.08 µM | 18.8 µM and 11.4 µM | 2.68 µM | > 44.1 µM and 20.8 µM | 2.85 µM | > 46.7 µM and 20.6 µM
7 | CC(=O)Nc1ccc(CC[C@H]2CCC/C=C/[C@@H]3C[C@H](O)C[C@H]3[C@H](O)/C=C/C(=O)O2)cc1 | 0.471 µM | > 100 µM | 0.392 µM | > 100 µM | 0.0434 µM | > 92.4 µM | 0.105 µM |  | 0.353 µM | > 100 µM | 0.0362 µM | 0.197 µM | 0.345 µM | 2.82 µM | 0.281 µM |  | 0.0887 µM | 0.237 µM | 0.304 µM | > 100 µM
8 | O=C(c1ccccc1)c1nc2ccc(Cl)cc2cc1C(Br)Br |  | 0.879 µM |  | 3.55 µM |  | 2.06 µM |  | 1.41 µM |  | 0.744 µM |  | 0.814 µM |  | 11.8 µM |  | 1.94 µM |  | 4.38 µM |  | 0.674 µM
9 | CC(C)CC(NC(=O)C(O)C(N)Cc1ccccc1)C(=O)O (centres undefined) |  | > 100 µM |  | > 100 µM |  | > 100 µM |  | > 100 µM |  | > 100 µM |  | > 100 µM |  | > 100 µM |  | > 100 µM |  | > 100 µM |  | > 100 µM
10 | CCC(C)[C@@H]1NC(=O)[C@@H]2CCCN2C(=O)C(CC(O)CCl)OC(=O)CCNC(=O)[C@H](C)N(C)C(=O)[C@H](C(C)C)N(C)C1=O (some centres undefined) (cyclo([Ile(3ξ)][NMeV][NMeA][βAla][Pentanoyl(2-O,4-OH,5-Cl)]P)) |  | > 100 µM |  | > 100 µM |  | 7.71 µM |  | > 100 µM |  | > 100 µM |  | > 100 µM |  | > 100 µM |  | > 100 µM |  | > 100 µM |  | > 100 µM
11 | Cc1ccc(NC(=O)c2ccoc2)cc1-c1ccc(C(=O)NCC2CC2)cc1 | > 20.5 µM | > 25 µM | > 18.6 µM | > 25 µM | 13.9 µM | > 25 µM | > 18.8 µM | > 25 µM | > 17 µM | > 25 µM | > 25 µM | > 25 µM | > 25 µM | > 25 µM | > 25 µM | > 25 µM | > 25 µM | > 25 µM | > 25 µM | > 25 µM

From PubChem BioAssay (NCI)
